Data set [1] is described as follows: Maximum tolerated dosage in mice. As to conditions: intravenous, once weekly for three weeks (day 1, 8 and 15), female Balb/c mice. From the text:
Mice were weighed daily and watched for signs of toxicity. Animals were monitored for up to 10 days following the final drug dose. Any mice exceeding ethical endpoints (>20% body weight loss, poor general health) were immediately sacrificed and observations were noted.

Data set [2] deals with 2008 (ovarian). In words: Sulforhodamine B (SRB) cell growth inhibition assay. Particulars: 72 hours, based on equivalent platinum loading, standard drugs on total molecular weight. Here is the method:
(§1) Cell growth inhibition was determined using the Sulforhodamine B (SRB) assay (Voigt W., “Sulforhodamine B assay and chemosensitivity” Methods Mol. Med., 2005, 110, 39-48) against various cancer cell lines after 72 hours.
(§2) All solutions were prepared in saline and were stored at −20° C. All values were based on equivalent platinum loading except standard drugs which were calculated on total molecular weight. The results are shown in Table 1 in the micromolar range.

Data set [3] has as its system FADU (head and neck). The data set is described as above. Particulars: 72 hours, based on equivalent platinum loading, standard drugs on total molecular weight. The method, then:
as §1, §2

For data set [4], the system named is LoVo (colon). Described as above. Particulars: 72 hours, based on equivalent platinum loading, standard drugs on total molecular weight. Here is the method: as §1, §2
For data set [5], the system named is SW620 (colon). The description is as above. Particulars: 72 hours, based on equivalent platinum loading, standard drugs on total molecular weight. Here is the method:
as §1, §2

The subject of data set [6] is OE21 (head and neck). Described as above. As to conditions: 72 hours, based on equivalent platinum loading, standard drugs on total molecular weight. The method, then:
as §1, §2

Data set [7] in a line: Toxicity study: blood cell counts in tumor-bearing mice. Particulars: Oxaliplatin 5, Compound 1 8.5, Compound 5 9 mg/kg Pt equivalents IV days 1, 8, 15. The method, then:
The mice were randomised into 4 groups of n=5 mice, (mean tumor volume ˜90 mm^3) On day one, animals were eye bled in the morning for baseline cell counts and then drug dosing commenced later that day. Drug dosing was performed on days 1, 8 and 15 at the previously determined maximum tolerated doses. All compounds were dissolved in 5% glucose at the concentration required to allow administration of 0.1 mL/10 g body weight. […] Subsequent eye bleeds were performed on days 7, 14 and 26 (Tables 4 A-D, in each case data represented as mean ratio of counts for each time point relative to that at the baseline).

The subject of data set [8] is SW620 cells. Put plainly: Xenograft model efficacy study. Particulars: IV days 1, 8, 15, Oxaliplatin 5, Compound 1 8.5, Compound 5 9 mg/kg Pt equivalents.
Description: Thirteen days later, 50 mice with similar sized tumors (˜110 mm^3) were randomized into 4 groups (n=12). All compounds were dissolved in 5% glucose at the concentration required to achieve administration of 0.1 mL/10 g body eight.
For data set [9] the following is noted: cited from earlier work.

Where only a bound is given, the exact number is not on record here.

Regarding “BHALys[Lys]32[α-diglycolic acid-5R-oxy-(1R,2R)-diaminocyclohexane-oxalato-Platinum (II)]32[ε-PEG2200]32 [Compound 13]”, in [1], the “Tolerated Dose” value was >35 mg/Kg Pt equivalents.
In general, GI50 refers to the concentration at which growth is held to half of that of the control. Regarding “BHALys[Lys]32[α-thiodiglycolic acid-4-oxy-1,1-cyclohexane dicarboxylic acid —Pt-1R,2R-(DACH)]32[ε-PEG2200]32 [Compound 12]”, the GI50 is 6 µM in data set [2], 8.5 µM in data set [3], 5 µM in [4] and 2.5 µM in data set [5]. Further, the “Tolerated Dose” value in data set [1] was >60 mg/Kg Pt equivalents.
Turning to oxaliplatin [reference compound], the GI50 in [2] is 0.2 µM; in [3], 0.9 µM; in data set [4], 0.5 µM; in data set [6], 1 µM; in [5], 0.2 µM. In addition, the “Mean lymphocytes counts (baseline corrected) (SEM)” value in [7] (Day 1 (baseline)) is recorded as 1.000 (0.125); in data set [7] (Day 7), 0.240 (0.130); in data set [7] (Day 14), 0.302 (0.066); in [7] (Day 26), 0.380 (0.154). Moreover, the “Mean Tumor Volume” value in [8] (Day 1) is 100.56 mm^3; in data set [8] (Day 7), 203.06 mm^3; in data set [8] (Day 14), 340.50 mm^3; in data set [8] (Day 21), 501.57 mm^3.
Turning to “BHALys[Lys]32[α-Succ-Gly-Gly-Gly-amino malonic acid-Pt-1R,2R-(DACH)]32[ε-PEG2200]32 [Compound 1]”, the concentration for 50% growth inhibition (GI50) amounted to 4.5 µM in data set [2], 9 µM in data set [3], 7.5 µM in data set [4] and 3.5 µM in data set [5]. For the same compound, the “Mean Tumor Volume” value worked out at 100.47 mm^3 in [8] (Day 1), 184.55 mm^3 in data set [8] (Day 7), 283.02 mm^3 in [8] (Day 14) and 316.90 mm^3 in data set [8] (Day 21).
For the compound “BHALys[Lys]32[α-Succ-Gly-Leu-Phe-Gly-amino malonic acid-N,O—Pt-diammine]32[ε-PEG1100]32 [Compound 7]”, the GI50 was 36 µM in [2]; 150 µM in [3]; 220 µM in data set [4]; > 30 µM in data set [6]; 170 µM in [5].
As to “BHALys[Lys]32[α-Succ-Gly-Gly-Gly-amino malonic acid-O,N—Pt-diammine]32[ε-PEG2200]32 [Compound 3]”, the GI50 was 69 µM in data set [2], > 300 µM in [3], > 300 µM in data set [4] and > 300 µM in [5].
“BHALys[Lys]32[α-diglycolic acid-5S-oxy-(1R,2R)-diaminocyclohexane-oxalato-Platinum (II)]32[ε-PEG2200]32 [Compound 14]”: the “Tolerated Dose” value in [1] is >35 mg/Kg Pt equivalents.
As to `N.N.O=C([O-])C1(C(=O)[O-])CCC1.[Pt+2]` [Carboplatin, carboplatin, reference compound], the GI50 amounted to 4.9 µM in data set [2]; 20 µM in [3]; 23 µM in data set [4]; 3.6 µM in data set [6]; 33.5 µM in data set [5]. The “patients developing peripheral neurotoxicity” value in [9] (patients receiving the drug) was 4-6%.
As for `N.N.[Cl][Pt][Cl]` [Cisplatin, cisplatin, reference compound], the GI50 in data set [2] turned out to be 0.5 µM; in [3] it was 2 µM; in data set [4] it was 2.8 µM; in data set [6] it was 0.4 µM; in data set [5] it was 3.6 µM. The “patients with tinnitus and hearing loss” value in data set [9] (patients treated with the drug) is on record as “up to 31%”.
In the case of “BHALys[Lys]32[α-Succ-Pro-Val-Gly-Leu-Ile-Gly-amino malonic acid N,O—Pt-diamine]32[ε-PEG1100]32 [Compound 8]”, the 50% growth inhibitory concentration (GI50) in [2] is 18 µM; in [3], 71 µM; in [4], 72 µM; in data set [6], 26.5 µM; in data set [5], 63 µM.
On the same counts, the results for “BHALys[Lys]32[α-Succ-Gly-Gly-Gly-amino malonic acid-N,O—Pt-1R,2R-(DACH)]32[ε-PEG1100]32 [Compound 4]” are 6.4 µM, 9.5 µM, 13 µM, 7.4 µM and 6.7 µM.
On the same counts, the results for “BHALys[Lys]32[α-Succ-Gly-Leu-Phe-Gly-amino malonic acid-N,O—Pt-1R,2R-(DACH)]32[ε-PEG1100]32 [Compound 6]” are 3.9 µM, 12 µM, 8.1 µM, 14.5 µM and 4.2 µM.
Regarding “BHALys[Lys]32[α-Succ-Gly-Gly-Gly-amino malonic acid-O,O′—Pt-diammine]32[ε-PEG2200]32 [Compound 2]”, the GI50 is 41 µM in data set [2]; 200 µM in [3]; 170 µM in data set [4]; > 30 µM in data set [6]; > 300 µM in [5].
As for “BHALys[Lys]32[α-Succ-Gly-Leu-Phe-Gly-amino malonic acid-Pt-1R,2R-(DACH)]32[ε-PEG2200]32 [Compound 5]”, the GI50 worked out at 2.5 µM in [2], 3 µM in data set [3], 3 µM in [4] and 1.5 µM in data set [5]. Moreover, the “Mean Tumor Volume” value in [8] (Day 1) came out at 100.96 mm^3; in [8] (Day 7), 196.01 mm^3; in data set [8] (Day 14) it was 303.00 mm^3; in [8] (Day 21), 363.01 mm^3.
